Assay results: US20070128217A1 (priority 2003, published 2007)

What was measured:
[1] = system: antibodies in sera from SARS patients (sera 1a, 1b, 2, 6, 37, 62, London, SARS-yellow, SARS-green); assay type: binding, human; set-up: Binding of serum 6 to linear peptides of protein X1 of SARS-CoV Urbani / Binding of serum 37 to linear peptides of protein X1 of SARS-CoV Urbani / Binding of serum 6 to looped/cyclic peptide (PEPSCAN-ELISA) / Binding of serum 37 to looped/cyclic peptide (PEPSCAN-ELISA) / Binding of serum 37 to looped/cyclic peptides of protein X1 of SARS-CoV Urbani / Binding of serum 6 to linear peptides of protein X2 / Binding of serum 37 to linear peptides of protein X2 / Binding of serum 37 to looped/cyclic peptides of protein X2 of SARS-CoV Urbani / Binding of serum 6 to linear peptides of protein M of SARS-CoV Urbani / Binding of serum 37 to linear peptides of protein M of SARS-CoV Urbani / Binding of serum 6 to looped/cyclic peptides of protein M of SARS-CoV Urbani / Binding of serum 37 to looped/cyclic peptides of protein M of SARS-CoV Urbani / Binding of serum 6 to linear peptides of protein X3 of SARS-CoV Urbani / Binding of serum 37 to linear peptides of protein X3 of SARS-CoV Urbani / Binding of serum 37 to looped/cyclic peptides of protein X3 of SARS-CoV Urbani / Binding of serum 6 to linear peptides of protein X4 of SARS-CoV Urbani / Binding of serum 37 to linear peptides of protein X4 of SARS-CoV Urbani / Binding of serum 37 to looped/cyclic peptides of protein X4 of SARS-CoV Urbani / Binding of serum 6 to linear peptides of protein X5 of SARS-CoV Urbani / Binding of serum 37 to linear peptides of protein X5 of SARS-CoV Urbani / Binding of serum 37 to looped/cyclic peptides of protein X5 of SARS-CoV Urbani / Binding of serum 6 to linear peptides of protein N of SARS-CoV Urbani / Binding of serum 37 to linear peptides of protein N of SARS-CoV Urbani / Binding of serum 6 to linear peptide (PEPSCAN-ELISA) / Binding of serum 1a to looped/cyclic peptides of protein N of SARS-CoV Urbani / Binding of serum 1b to looped/cyclic peptides of protein N of SARS-CoV Urbani / Binding of serum 2 to looped/cyclic peptides of protein N of SARS-CoV Urbani / Binding of serum 6 to looped/cyclic peptides of protein N of SARS-CoV Urbani / Binding of serum 37 to looped/cyclic peptides of protein N of SARS-CoV Urbani / Binding of serum 62 to looped/cyclic peptides of protein N of SARS-CoV Urbani / Binding of serum London to looped/cyclic peptides of protein N of SARS-CoV Urbani / Binding of serum SARS-green to looped/cyclic peptides of protein N of SARS-CoV Urbani: unit not given here
[2] = system: control sera (pooled serum of ten healthy LUMC hospital workers; commercial negative donor pooled serum from the Dutch bloodbank); assay type: binding, human; set-up: Binding of Control serum LUMC to linear peptides / Binding of Control serum Blood-bank to linear peptides / Binding of Control serum LUMC to looped peptides / Binding of Control Serum Blood-Bank to Looped peptides / Binding of Control serum LUMC to linear peptides of the protein M of SARS-CoV Urbani / Binding of Control serum Blood-bank to linear peptides of the protein M of SARS-CoV Urbani / Binding of Control serum LUMC to looped peptides of the protein M of SARS-CoV Urbani / Binding of Control Serum Blood-Bank to Looped peptides of the protein M of SARS-CoV Urbani: unit not given here
[3] = system: rabbit serum obtained by immunizing a rabbit with the SARS-CoV strain Frankfurt 1; assay type: binding; set-up: Binding of a rabbit serum to linear peptides / Binding of a rabbit serum to looped peptides / Rabbit serum linear peptides / Rabbit serum looped peptides / Binding of a rabbit serum to linear peptides of protein N of SARS-CoV Urbani (Rabbit serum linear peptides) / Binding of a rabbit serum to looped/cyclic peptides of protein N of SARS-CoV Urbani (Rabbit serum looped peptides): unit not given here

## FTTSLSLHKLLQTLV
[1]
  Binding of serum 1a to linear peptides of protein X2: 0.5
  Binding of serum 1a to looped/cyclic peptides of protein X2 of SARS-CoV Urbani: 2.1
  Binding of serum 1b to linear peptides of protein X2: 0.5
  Binding of serum 1b to looped/cyclic peptides of protein X2 of SARS-CoV Urbani: 2.5
  Binding of serum 2 to linear peptides of protein X2: 0.4
  Binding of serum 2 to looped/cyclic peptides of protein X2 of SARS-CoV Urbani: 1.2
  Binding of serum 6 to linear peptides of protein X2: 0.6
  Binding of serum 6 to looped/cyclic peptides of protein X2 of SARS-CoV Urbani: 0.8
  Binding of serum 37 to linear peptides of protein X2: 0.5
  Binding of serum 37 to looped/cyclic peptides of protein X2 of SARS-CoV Urbani: 1.3
  Binding of serum 62 to linear peptides of protein X2: 0.5
  Binding of serum 62 to looped/cyclic peptides of protein X2 of SARS-CoV Urbani: 1.7
  Binding of serum London to linear peptides of protein X2: 0.4
  Binding of serum London to looped/cyclic peptides of protein X2 of SARS-CoV Urbani: 1.0
  Binding of serum SARS-green to linear peptides of protein X2: 0.5
  Binding of serum SARS-green to looped/cyclic peptides of protein X2 of SARS-CoV Urbani: 1.7
  Binding of serum SARS-yellow to linear peptides of protein X2: 0.4
  Binding of serum SARS-yellow to looped/cyclic peptides of protein X2 of SARS-CoV Urbani: 1.3
[2]
  Binding of Control Serum Blood-Bank to Looped peptides: 2.0
  Binding of Control serum Blood-bank to linear peptides: 0.6
  Binding of Control serum LUMC to linear peptides: 0.5
  Binding of Control serum LUMC to looped peptides: 1.6
[3]
  Binding of a rabbit serum to linear peptides: 0.1
  Binding of a rabbit serum to looped peptides: 0.9

## FVASFRLFARTRSMW
[1]
  Binding of serum 1a to linear peptides of protein M of SARS-CoV Urbani: 0.9
  Binding of serum 1b to linear peptides of protein M of SARS-CoV Urbani: 1.1
  Binding of serum 2 to linear peptides of protein M of SARS-CoV Urbani: 0.7
  Binding of serum 6 to linear peptides of protein M of SARS-CoV Urbani: 1.3
  Binding of serum 37 to linear peptides of protein M of SARS-CoV Urbani: 0.6
  Binding of serum 62 to linear peptides of protein M of SARS-CoV Urbani: 0.6
  Binding of serum London to linear peptides of protein M of SARS-CoV Urbani: 0.9
  Binding of serum SARS-green to linear peptides of protein M of SARS-CoV Urbani: 0.7
  Binding of serum SARS-yellow to linear peptides of protein M of SARS-CoV Urbani: 0.3
  Recognition of the peptide by sera of SARS-CoV infected individuals, and form (linear, looped/cyclic) in which it is recognized: recognized in looped/cyclic form
[2]
  Binding of Control Serum Blood-Bank to Looped peptides of the protein M of SARS-CoV Urbani: 0.6
  Binding of Control serum Blood-bank to linear peptides of the protein M of SARS-CoV Urbani: 0.9
  Binding of Control serum LUMC to linear peptides of the protein M of SARS-CoV Urbani: 1.0
  Binding of Control serum LUMC to looped peptides of the protein M of SARS-CoV Urbani: 0.7
[3]
  Rabbit serum linear peptides: 0.2
  Rabbit serum looped peptides: 0.3

## FVTIYSHLLLVAAGM
[1]
  Binding of serum 1a to linear peptides of protein X1 of SARS-CoV Urbani: 0.7
  Binding of serum 1a to looped/cyclic peptide (PEPSCAN-ELISA): 0.5
  Binding of serum 1b to linear peptides of protein X1 of SARS-CoV Urbani: 0.5
  Binding of serum 1b to looped/cyclic peptide (PEPSCAN-ELISA): 0.3
  Binding of serum 2 to linear peptides of protein X1 of SARS-CoV Urbani: 0.6
  Binding of serum 2 to looped/cyclic peptide (PEPSCAN-ELISA): 0.3
  Binding of serum 6 to linear peptides of protein X1 of SARS-CoV Urbani: 0.4
  Binding of serum 6 to looped/cyclic peptide (PEPSCAN-ELISA): 0.3
  Binding of serum 37 to linear peptides of protein X1 of SARS-CoV Urbani: 0.5
  Binding of serum 37 to looped/cyclic peptide (PEPSCAN-ELISA): 0.5
  Binding of serum 62 to linear peptides of protein X1 of SARS-CoV Urbani: 0.5
  Binding of serum 62 to looped/cyclic peptide (PEPSCAN-ELISA): 0.5
  Binding of serum London to linear peptides of protein X1 of SARS-CoV Urbani: 0.2
  Binding of serum London to looped/cyclic peptide (PEPSCAN-ELISA): 0.2
  Binding of serum SARS-green to linear peptides of protein X1 of SARS-CoV Urbani: 0.3
  Binding of serum SARS-green to looped/cyclic peptide (PEPSCAN-ELISA): 0.2
  Binding of serum SARS-yellow to linear peptides of protein X1 of SARS-CoV Urbani: 0.5
  Binding of serum SARS-yellow to looped/cyclic peptide (PEPSCAN-ELISA): 0.3
[2]
  Binding of Control Serum Blood-Bank to Looped peptides: 0.6
  Binding of Control serum Blood-bank to linear peptides: 0.6
  Binding of Control serum LUMC to linear peptides: 0.5
  Binding of Control serum LUMC to looped peptides: 0.5
[3]
  Binding of a rabbit serum to linear peptides: 0.1
  Binding of a rabbit serum to looped peptides: 0.5
